“Also recorded” adds a separate entry of the source.
How the values were obtained:
[1] = tested on: Tat driven HIV LTR expression; assay: Tat-driven HIV LTR (TAR) luciferase reporter assay in transfected HeLa cells; assay type: cell-based; conditions: for inhibitory activity of Tat activation of HIV LTR compared with wild-type TOE1: HeLa cells, luciferase, FIG. 7
Description: FIG. 3: TOE1 inhibits Tat driven HIV LTR expression. HeLa cells were seeded into 24 wells plates at 30,000 cells/well and then transfected the following day with the indicated constructs at 200 ng total DNA+0.5 μl of FuGENE™ (Roche)/well. 24 hours after transfection the cells were lysed and the luciferase expression was determined by reading Relative Bioluminescent Units (RLU). This graph is representative of multiple experiments performed in triplicates.
FIG. 7: TOE1 processing by caspase-1 enhances its inhibition of HIV LTR transactivation by Tat. (A) HeLa cells were transfected with the indicated constructs, and then luciferase assay was performed as described above. […] All transfection and measurements were performed in triplicate.
FIG. 9: Defining the minimal TOE1 region able to inhibit Tat-induced HIV LTR activation. […] Results are expressed as percentage activation of the HIV LTR referenced to Tat. All transfections and measurements were performed in triplicate, and results are representative of multiple independent experiments.
To test for a potential interaction between TOE1 and Tat, we assessed the effect of TOE1 expression on Tat driven transactivation of the TAR element. We employed a luciferase expression system controlled by the HIV LTR including the TAR sequence.

[2] = tested on: Tat-driven HIV LTR activity; assay: Co-culture of transfected 293T cells with HeLa cells carrying HIV LTR reporter and Tat; assay type: cell-based; conditions: 293T transfected with construct, co-cultured 24 hours with HeLa (HIV LTR + Tat), FIG. 11
Description: FIG. 11. TOE1 can be secreted and inhibits HIV LTR in neighboring cells. HeLa cells were transfected with either HIV LTR alone, or together with Tat as indicated. Separately, 293T cells were transfected with either control empty vector (C), full length TOE1 (TOE1), or a deletion mutant comprising amino acids 283-363 (SEQ ID NO:13) containing the basic region located at 335-348 (283-363). 24 hours following transfection, the transfected 293T cells were placed in co-culture with the transfected HeLa cells to provide the samples. 24 hours after co-culture, samples were assayed for Tat-driven HIV LTR activity.
To determine if TOE1 could be secreted and subsequently taken up by other neighboring cells, we performed co-culture experiments of cells transfected with the HIV LTR reporter and Tat protein in one cell type and either full length TOE1 or the potential protein transduction domain of TOE1 comprising amino acids 283-363 (SEQ ID NO:13) in another cell type. […] Therefore, a minimal domain of TOE1, comprising the basic stretch of amino acids at position 335-347 (SEQ ID NO:15), was able to function as a protein transduction domain as well as an effective inhibitor of Tat transcriptional activation.

caspase-1 = target: T1, caspase-1 (Homo sapiens, UniProt P29466); assay: In vitro digestion of immunoprecipitated TOE1 with recombinant caspase-1, Western blot; assay type: biochemical; conditions: caspase-1 incubation 4 hours at 37° C., FIG. 4
T1 construct: purchased Calbiochem
T1 sequence (P29466 120-297 limits assumed): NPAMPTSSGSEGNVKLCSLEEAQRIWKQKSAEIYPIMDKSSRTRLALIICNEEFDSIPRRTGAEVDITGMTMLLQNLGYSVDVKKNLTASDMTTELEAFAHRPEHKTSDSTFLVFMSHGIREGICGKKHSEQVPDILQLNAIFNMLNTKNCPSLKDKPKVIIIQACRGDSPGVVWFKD
Description: FIG. 4: TOE1 is a substrate for caspase-1. (A) Endogenously expressed TOE1 was immunoprecipitated from a lysate of Jurkat cells using the rabbit polyclonal α-TOE1 antibody or pre-immune serum (control=C) and ProteinA/Sepharose™ beads. Immunoprecipitates complexed beads were then incubated with 5 units of recombinant caspase-1 (from Calbiochem) or control buffer, as indicated, for 4 hours at 37° C., and then separated on a 12% Acrylamide/SDS gel and transferred on a PVDF membrane. 50 kDa, 40 kDa and 30 kDa fragments are visible after probing the blot with the monoclonal α-TOE1 antibody. (B) Cell lysates from cells transfected with a TOE1 expression construct were subjected to immunoprecipitation with the rabbit α-TOE1 antibody and ProteinA/Sepharose™ beads.
Since, as described earlier, CAF activity is reported to be dependent upon proteolytic activity, we decided to explore the possibility that TOE1 is a protease substrate. […] The software predicts a single cleavage for the tetrapeptide FTAD at position 214-217 of TOE1. We considered this potential cleavage to warrant further study for several reasons. […] Under our experimental conditions we observed processing by casapse-1 generating fragments of 50, 40, and 30 kDa as detected with a monoclonal anti-TOE1 antibody whose target epitope we have mapped to residues 218-282 (FIG. 4A). […]

With delN282 the “inhibitory activity of Tat activation of HIV LTR compared with wild-type TOE1” value [1] was “more efficient inhibitor; also recorded: greater inhibition than wild-type TOE1”.
For “TOE1: human TOE1 (target of EGR1) protein, full length, 510 amino acids”, the “effect on the LTR in the absence of Tat” value ([1]; HIV LTR luciferase, no Tat) was “did not have any effect”, the “reduction of Tat transactivation potential” value ([1]; TOE1 coexpressed with Tat, HIV LTR incl. TAR luciferase, different experiments (FIG. 3)) was 50-80% and the “inhibition of Tat activation of the HIV LTR in neighboring cells” value [2] was “effectively inhibiting”.
In the case of YVAD-CHO, the “inhibition of TOE1 processing by caspase-1” value (caspase-1) is reported as “completely prevents the processing; also recorded: processing was inhibited”.
In the case of D195/282A, the “inhibitory activity of Tat activation of HIV LTR compared with wild-type TOE1” value [1] is reported as “less effective than wild type TOE1; also recorded: significantly less effective”.
With “335-363 (KRRRRRRREKRKRALLNLPGTQTSGEAKD; K335/D363 Deletion mutant of TOE1)” the “inhibition of Tat activation of the HIV LTR by TOE1 deletion mutants” value ([1]; transfected deletion mutants, FIG. 9) was “significantly inhibiting”.

From patent US9422350B2, “Target of EGR1 (TOE1) polypeptides for inhibition of HIV” (priority 2010, dated 2016)
